Reference: US20150056209A1, “PEPTIDE MIMOTOPES TO OXIDATION SPECIFIC EPITOPES” (The Regents of the University of California, priority 2012, published 2015)
Bridges are numbered along the chain shown (N, C = ends). Where no end group is shown, it is not given here.

Assays:
PC-specific IgM mAb EO6 = assay: Chemiluminescent ELISA, binding of EO6 to plated peptides; design: species or system murine; settings: EO6 5 μg/mL; peptides coated at 5-10 μg/mL
Description: (A) ELISA for the binding of LRO4 to BSA, MAA-BSA, the P2 mimotope (ACNNSNMPLC-GGGS) (SEQ ID NO:3) and a scrambled peptide (ACSPNLNMNC-GGGS) (SEQ ID NO:4) of P2 (Scr.P2). Peptides were coated at 20 μg/ml, BSA and MAA-BSA at 5 μg/ml, and binding of indicated concentrations of LRO4 was determined by chemiluminescent ELISA as described in Methods. (B) ELISA for binding of LRO4 and EO6. P1, P2, BSA, MAA-BSA, nLDL, MDA-LDL, and CuOx-LDL were coated at 5-10 μg/mL. Binding of LRO4 and EO6 (both at 5 μg/mL) was determined by chemiluminescent ELISA. (C) Immunocompetition assay for the specificity of LRO4. Binding of 0.5 μg/mL LRO4 to 100 ng/mL captured biotinylated peptides P2 was measured by ELISA in the presence of increasing concentrations of P2 and scrambled P2. […]
Binding of mAb as well as plasma Abs to respective antigens was measured by chemiluminescent ELISA. […] Ab binding was measured using alkaline phosphatase (AP) labeled secondary Abs (described below) followed by chemiluminescent detection. […]

LRO4 [1] = assay: Chemiluminescent ELISA, binding of LRO4 to plated or captured peptides; design: species or system murine; settings: peptides directly plated at increasing concentrations; LRO4 5 μg/mL
Description: (§1) Binding of mAb as well as plasma Abs to respective antigens was measured by chemiluminescent ELISA. Antigens were coated at 5 μg/mL in PBS/EDTA (pH 7.4). Synthetic peptides were directly coated at 10 μg/mL (P1) or 5 μg/mL (P2) in 0.1M NaHCO3 buffer (pH 8.6), unless indicated differently. Biotinylated peptides were immobilized at indicated concentrations in 0.1M NaHCO3 buffer (pH 8.6) on wells pre-coated with 10 μg/mL neutravidin (Pierce, Rockford, Ill., USA). Ab binding was measured using alkaline phosphatase (AP) labeled secondary Abs (described below) followed by chemiluminescent detection. For the detection of human autoAbs, a 1:400 plasma dilution was used. For human assays, internal controls consisting of high and low standard plasma samples were included on each microtiter plate to detect potential variations between microtiter plates. The intra-assay coefficients of variation for all assays were 10 to 14%.
(§2) The following secondary Abs were used: Alkaline Phosphatase (AP)-labeled goat anti-mouse IgM (μ-chain specific), IgG (γ-chain specific), IgG1 (Sigma-Aldrich) and IgG2c (Southern Biotech). For the detection of human autoAbs AP-labeled goat anti human IgG (γ-chain specific) and IgM (μ-chain specific) (Sigma-Aldrich) were used. Biotin-conjugated Abs were detected with AP-conjugated neutravidin (1:10,000; Pierce).

[2] = test system: human plasma IgG and IgM autoAbs; assay: Chemiluminescent ELISA of human plasma autoAbs to coated mimotopes; type: binding; settings: n=18 healthy volunteers, plasma 1:400
Description: as §1, with “For human assays, internal controls consisting of high and low standard plasma samples were included on each microtiter plate to detect potential variations between microtiter plates. The intra-assay coefficients of variation for all assays were 10 to 14%.” left out
The following secondary Abs were used: Alkaline Phosphatase (AP)-labeled goat anti-mouse IgM (μ-chain specific), IgG (γ-chain specific), IgG1 (Sigma-Aldrich) and IgG2c (Southern Biotech). […] Biotin-conjugated Abs were detected with AP-conjugated neutravidin (1:10,000; Pierce).
Human plasma samples from two independent studies were analyzed for the presence of anti-peptide Abs. […] For these studies, autoAb titers to MDA-LDL as the antigen have already been reported, to allow ready comparisons to the new data generated here. […]
Statistical analyses were performed with GraphPad Prism 5 for Windows (Graphpad Software, Inc., San Diego, Calif.). […] For continuous variables, differences were evaluated by one-way analysis of variances (ANOVA). […]

[3] = test system: human MDA-specific IgG Fab IK17; assay: ELISA for binding of the human monoclonal Fab IK17; settings: antigens coated; biotinylated IK17 at increasing concentrations
Description: ELISA for binding of the human monoclonal Fab IK17. P1, P2, and MAA-BSA were coated onto microtiter plates, and biotinylated IK17 (Biot.IK17) was added at indicated concentrations. Binding was detected by chemiluminescent detection using AP-conjugated neutravidin. Values are given as relative light units (RLU) per 100 ms and represent the mean±SD of triplicate determinations.
as §1, §2

LRO4 [4] = assay: Competition immunoassays for LRO4 binding; design: species or system murine; settings: 0.5 μg/mL LRO4, increasing concentrations of soluble competitor; for competition for LRO4 binding to captured biotinylated P1: 100 ng/mL captured P1; for competition for LRO4 binding to captured biotinylated P2: 100 ng/mL captured P2; for competition for LRO4 binding to coated MAA-BSA: 0.5 μg/mL coated MAA-BSA
Description: (§3) The specific binding of LRO4 to mimotopes was determined by competition immunoassays. Fifty μl of 0.5 μg/mL MAA-BSA or 100 ng/mL of biotinylated peptides were plated as described above. LRO4 antibody was incubated in TBS-1% BSA with or without increasing concentrations of competitors (BSA, MAA-BSA, P1, P2 and control peptide) for 30 minutes at RT. Binding of LRO4 was determined by chemiluminescent ELISA. The specificity of human plasma Ab binding to P1 was determined in a similar manner. In preliminary experiments, aliquots of pooled plasma samples (n=26) from a published cohort of healthy subjects were diluted in 1% BSA-TBS to yield a limiting plasma dilution. Diluted plasma (1:1,000) and increasing concentrations of competitors were incubated overnight at 4° C. Samples were then centrifuged at 15,800 g for 45 minutes at 4° C. to pellet immune complexes, and supernatants were analyzed for binding to plated P1 (10 μg/mL) by chemiluminescent ELISA.

apoptotic Jurkat T-cells = assay: Flow cytometry, LRO4 binding to apoptotic Jurkat T-cells; type: cell-based; settings: UV-induced apoptotic Jurkat T-cells; increasing concentrations of soluble peptide
Description: Binding of LRO4 IgM to apoptotic Jurkat T-cells was assessed by flow cytometry. Apoptosis of Jurkat cells was induced by UV irradiation (UV Stratalinker, Stratagene, USA) at 20 mJ/cm^2, followed by further incubation of the cells in serum free medium for 14-16 hours. After washing in FACS buffer (PBS with 0.1% BSA) 10^6 cells were incubated with 1 μg LRO4 in 100 μl FACS buffer for 30 minutes at 4° C. In parallel experiments, cells were incubated with LRO4 in the presence of increasing concentrations of P1, P2, and an irrelevant control peptide. Following a washing step, cells were stained with FITC-labeled anti-mouse IgM (II/41, BD Biosciences-Pharmingen) in 100 μL staining buffer for 30 minutes at 4° C. in darkness and washed again. Thereafter, cells were incubated with PE-labeled Annexin-V and 7-AAD (BD Bioscience-Pharmingen) in Annexin-V binding buffer for 15 minutes and immediately analyzed by flow cytometry using a BD LSR II analyzer (BD Bioscience, San Jose, Calif., USA). More than 5.0×10^4 cells were acquired per sample, and data analysis was performed using FlowJo software (Tree Star Inc, San Carlos, Calif., USA).

[5] = test system: human plasma IgM and IgG Abs; assay: Immunocompetition assay, human plasma Ab binding to plated P1; settings: pooled human plasma 1:1,000; increasing concentrations of soluble competitor
Description: as §3

Substance | binding of EO6 to plated peptides (PC-specific IgM mAb EO6) | binding of LRO4 to plated peptides (LRO4 [1]) | IgG and IgM titers in plasma of healthy volunteers [2] | binding of IK17 [3] | competition for LRO4 binding to captured biotinylated P1 (LRO4 [4]) | competition for LRO4 binding to captured biotinylated P2 (LRO4 [4]) | competition for LRO4 binding to coated MAA-BSA (LRO4 [4]) | inhibition of LRO4 binding to apoptotic cells (apoptotic Jurkat T-cells) | inhibition of binding of IgM and IgG Abs to plated P1 [5]
ACNNSNMPLC (disulfide 2-10 (inferred); not fully specified (C-terminus)) [P2] | did not react | bound by LRO4 in a dose dependent manner | Plasma of all individuals contained both IgG and IgM titers | in a dose-dependent manner | fully competed | fully competed | effectively competed | fully inhibited | 
ACSPNLNMNC (ACSPNLNMNCGGGS-NH2; cysteine pairing not given here) [scrambled peptide of P2, reference compound] |  | not recognized by LRO4 |  |  |  | had no effect |  |  | 
HSWTNSWMATFL (not fully specified (C-terminus)) [P1] | did not react | bound by LRO4 in a dose dependent manner | Plasma of all individuals contained both IgG and IgM titers | in a dose-dependent manner | did not compete | did not compete | did not have an effect |  | 
IMGVGAVGAGAI (Control peptide) [irrelevant control peptide, reference compound] |  |  |  |  | had no effect | had no effect |  | not | 
MAA-BSA: malondialdehyde-acetaldehyde (MAA)-modified BSA [reference compound] |  |  |  | bound | fully competed | fully competed | effectively competed |  | nearly completely inhibited
